From patent US8129532B2, “Amino(oligo)thiophene dyes, preparation thereof, and optical methods of use” (The University of Connecticut, priority 2007, dated 2012)

Legend:
[1] = One-photon absorption and emission spectra in multilamellar lipid vesicles, water and ethanol; assay type: physicochemical; settings: for 1PF Abs. Max / 1PF Em. Max: one photon, soybean multi-lamellar lipid vesicles; for Absorbance MLV: multilamellar lipid vesicles
Text: […] The column indicating relative signal change for one-photon fluorescence also lists the excitation light source used and the lower bounds of the long-pass emission detected.
Absorption and emission spectra were obtained for a series of dyes with different acceptors: pyridinium (PY-1261), quinolinium (PY-212), and acridinium (PY-2240).

[2] = system: NIE-115 mouse neuroblastoma; experiment: Time-dependence (kinetics) of SHG and 2PF signal change after voltage-clamp step; assay type: cell-based
Text: For full details of our non-linear imaging microscope, we refer the reader to previously published descriptions. A. C. Millard, P. J. Campagnola, W. Mohler, A. Lewis, and L. M. Loew, “Second Harmonic Imaging Microscopy,” Meth. Enzymol. 361, 47-69 (2003); Millard, A. C., L. Jin, and L. M. Loew, “Second Harmonic Generation Imaging Microscopy with a High Power Ultrafast Fiber Laser,”Commercial and Biomedical Applications of Ultrafast Lasers. 5714-5716, 92-98 (2005); A. C. Millard, L. Jin, M.-D. Wei, J. P. Wuskell, A. Lewis, and L. M. Loew, “Sensitivity of Second Harmonic Generation from Styryl Dyes to Transmembrane Potential,” Biophys. J. 86, 1169-1176 (2004). Our current microscope combines a Fluoview (Olympus) scan-head and an Axiovert (Zeiss) inverted microscope constructed for multiple imaging methodologies including wide-field, one-photon excitation fluorescence imaging, as well as SHG and 2PF imaging. Our laser sources include a Mira (Coherent) Ti:sapphire laser and a Femtopower (Fianium) fiber laser operating at 1064 nm. Millard, A. C., L. Jin, and L. M. Loew, “Second Harmonic Generation Imaging Microscopy with a High Power Ultrafast Fiber Laser,”Commercial and Biomedical Applications of Ultrafast Lasers. 5714-5716, 92-98 (2005). For excitation, we routinely use an IR-Achroplan (Zeiss) 40×, 0.8 NA water-immersion objective though for shorter wavelengths we also use an A-Plan (Zeiss) 40×, 0.65 NA air objective. Fluorescence is imaged (for linear imaging) or collected (for non-linear imaging) back through the excitation objective, while SHG is collected in the forward, transmitted light direction by a condenser, either 0.8 NA or 0.55 NA (Zeiss). For optimal collection, the numerical aperture of the condenser should be at least 1/√2 of the numerical aperture of the excitation objective (L. Moreaux, O. Sandre, S. Charpak, M. Blanchard-Desce, and J. Mertz, “Coherent Scattering in Multi-Harmonic Light Microscopy,” Biophys. J. 80, 1568-1574 (2001); L. Moreaux, O. Sandre, and J. Mertz. “Membrane Imaging by Second Harmonic Generation Microscopy,” J. Opt. Soc. Am. B. 17, 1685-1694 (2000)), though in practice a condenser of slightly lower numerical aperture will often suffice. Since the wavelength of second harmonic light is precisely half that of the excitation light, the choice of filter for SHG imaging is greatly simplified and the primary concern is the blocking of the excitation light that is also transmitted through the sample as well as fluorescence that is emitted forwards.
NIE-115 mouse neuroblastoma were cultured in DMEM with 10% fetal bovine serum and 1% antibiotic-antimycotic (Invitrogen, Carlsbad, Calif.) in a 60 mm plastic dish (353002, Becton Dickinson, Franklin Lakes, N.J.). The culture was maintained at 37° C. with 5% CO2 for a period of 48 hours prior to experimentation.
For experimentation the growth medium was replaced with 3 mL of Earle's Balanced Salt Solution (EBSS, Sigma, St. Louis, Mo.) with 20 mM HEPES (Merck Biosciences AG, Laufelfingen, Switzerland). The internal buffer, injected into the patch pipette, was a potassium aspartate (140 mM, Sigma, St. Louis, Mo.), sodium chloride (5 mM, Sigma, St. Louis, Mo.) and HEPES (10 mM) solution at a pH of 7.35. The pH was adjusted with potassium hydroxide and hydrochloric acid.
For characterizing the voltage-sensitivity of SHG and 2PF, we used a slow (˜0.1 Hz) switching protocol as previously described (A. C. Millard, P. J. Campagnola, W. Mohler, A. Lewis, and L. M. Loew, “Second Harmonic Imaging Microscopy,” Meth. Enzymol. 361, 47-69 (2003); Millard, A. C., L. Jin, and L. M. Loew, “Second Harmonic Generation Imaging Microscopy with a High Power Ultrafast Fiber Laser,” Commercial and Biomedical Applications of Ultrafast Lasers. 5714-5716, 92-98 (2005); A. C. Millard, L. Jin, M.-D. Wei, J. P. Wuskell, A. Lewis, and L. M. Loew, “Sensitivity of Second Harmonic Generation from Styryl Dyes to Transmembrane Potential,” Biophys. J. 86, 1169-1176 (2004)) with a 50 mV step. […]

[3] = One-photon fluorescence relative signal change per 100 mV; settings: excitation / long-pass emission (nm) given
Text: The left-most data columns of Table 1 are the absorption and emission maxima for one photon fluorescence in soybean multi-lamellar lipid vesicles used to mimic the membrane environment. The column indicating relative signal change for one-photon fluorescence also lists the excitation light source used and the lower bounds of the long-pass emission detected.

[4] = system: layer V pyramidal neurons; experiment: Voltage-sensitive dye imaging of action potentials in intracellularly stained pyramidal neurons in brain slices; assay type: cell-based, Sprague Dawley rats; settings: laser spot 658 nm; for dF/F at 658 nm: backpropagating AP, basal dendrites 80-150 μm from soma, %
Text: Sprague Dawley rats (P21-42) were anesthetized with isoflurane, decapitated, and the brains were removed with the head immersed in ice-cold, artificial cerebrospinal fluid (ACSF), according to an animal protocol approved by the Center for Laboratory Animal Care, University of Connecticut. Brain slices (300 μm) were cut from frontal lobes in the coronal plane. ACSF contained (in mM) 125 NaCl, 26 NaHCO3, 10 glucose, 2.3 KCl, 1.26 KH2PO4, 2 CaCl2 and 1 MgSO4, pH 7.4. Whole-cell recordings were made from visually identified layer V pyramidal neurons on the medial part of the slice. Intracellular solution contained (in mM) 135 K-gluconate, 2 MgCl2, 3 Na2-ATP, 10 Na2-phosphocreatine, 0.3 Na2-GTP and 10 Hepes (pH 7.3, adjusted with KOH). Electrical signals were amplified with Multiclamp 700A and digitized with two input boards: (1) Digidata Series 1322A (Axon Instruments) at 5 kHz, and (2) Neuroplex (RedShirtImaging) at 2.7 kHz sampling rate. Only cells with a membrane potential more hyperpolarized than −50 mV, and action potential amplitudes exceeding 80 mV (measured from the base line) were included in this study. All experiments were performed on layer 5 cortical pyramidal cells at 34° C.
Blue dyes were stored in ethanol stock solution at −20° C. On the day of the recording blue dyes were dissolved in standard K-gluconate based intracellular solution. A loading pipette was filled with two varieties of the same intracellular solution; one with and one without dye. Dye-free solution was occupying the very tip of the pipette, while the back of the pipette lumen was microloaded with dye-rich solution. The purpose of dye-free solution in the tip of the patch pipette was to prevent dye-leak during the maneuver through brain slice tissue. VSD styryl dyes are lipophilic and bind indiscriminately and irreversibly to all membranes around the neuron of interest. Even a small amount of dye that leaks out of the pipette during the formation of the gigaohm seal, can generate strong fluorescent background. Fluorescent light emanating from surrounding tissue has a devastating effect on dendritic optical signals. Elimination of the background fluorescence is critical for dendritic voltage imaging. How much dye-free solution one should put in the tip depends on time period between the submersion of the patch pipette into the recording chamber and formation of the gigaohm seal. The faster one can perform this maneuver the less dye-free solution she needs to achieve optimal staining.
Blue VSD were injected at room temperature for 25-60 minutes. The filling pipette was carefully pulled out (outside-out patch) and brain slices were left to incubate for 20-120 minutes at room temperature. Just before optical recordings the cells were re-patched with dye-free pipette at the physiological temperature (34° C.).
Voltage-sensitive dye imaging was performed on a Zeiss Axioskope 2FS microscope equipped with NeuroCCD camera (RedShirtImaging). We used Zeiss 40× objective IR-Achroplan 0.80 W. The size of the square visual field captured by NeuroCCD camera was 384×384 um. In the place of the arc lamp (normally used for epi-illumination), we inserted a 200 μm fiber optic guide with a collimator. Laser beam was focused on the other side of the fiber optic guide using a microscope objective-like lens. This arrangement produced a motionless spot of laser light (˜25 μm in diameter) at the object plane. An illuminated section of the brain slice, projected onto the NeuroCCD camera, covered approximately 25 pixels when used with 40× objective lens. At this magnification, one pixel sampled a 4.8×4.8 square in the object plane. A region of interest (ROI) was brought into the laser spot using X-Y microscope platform. The laser beam was interrupted by an electro-programmable shutter (Uniblitz®). Attention was made to limit the exposure time during the recording and positioning of the neuron.

SMILES	1PF Abs. Max [1]	1PF Em. Max [1]	SHG Kinetics (exponential time constant) ([2]; time resolution 5 ms)	1PF Change (ΔF/F-100 mv) [3]	Absorbance ethanol ([1]; ethanol)	Absorbance MLV [1]	Absorbance water [1]	SHG kinetics, in words [2]	2PF signal sensitivity detected between 750-850 nm ([2]; kinetics data, FIG. 3c)	2PF kinetics (time of signal change) ([2]; time resolution 5 ms)	dF/F at 658 nm [4]	S/N ratio at 658 nm [4]	Emission ethanol ([1]; ethanol)
CCCCN(CCCC)c1ccc2cc(/C=C/C=C/C=C/c3cc[n+](CCC[N+](C)(C)C)c4ccccc34)ccc2c1.[Br-].[Br-] [di-4-ANHTQPQ, reference compound]	504 nm	655 nm	34 ± 3 ms	5.4E−002; 630/>715 ΔF/F-100 mv									
CCN(CC)c1ccc(-c2ccc(-c3ccc(/C=C/c4cc[n+](CCC[N+](CC)(CC)CC)cc4)s3)s2)s1 [PY-1268]	535 nm	714 nm	<5 ms	4.2E−002; 640/>715 ΔF/F-100 mv	588 nm	535 nm	508 nm	instantaneously	4.28 %/50 mV	≤ 5 ms	5.89 ± 3.41%	4.44 ± 0.75	
CCCCN(CCCC)c1ccc2cc(/C=C/c3cc[n+](CCC[N+](C)(C)C)c4ccccc34)ccc2c1.[Br-].[Br-] [di-4-ANEQPQ, reference compound]	528 nm	670 nm	76 ± 13 ms	1.2E−001; 610/>665 ΔF/F-100 mv									
CCC[N+](CCC)(CCC)CCC[n+]1ccc(/C=C/c2ccc(-c3ccc(N(CC)CC)s3)s2)cc1 [PY-1278]	555 nm	688 nm		7.9E−002; 640/>715 ΔF/F-100 mv				instantaneous					
CCCCN(CCCC)c1ccc2cc(/C=C/C=C/c3cc[n+](CCC[N+](C)(C)C)c4ccccc34)ccc2c1.[Br-].[Br-] [di-4-ANBDQPQ, Di-4-ANBDQPQ, reference compound]	539 nm	708 nm	<5 ms	2.0E−001; 618/>715 ΔF/F-100 mv	603 nm	539 nm	552 nm				1.23 ± 0.66%	4.97	818 nm
